Assay results published in patent publication US20150110845A1, “ANTIMICROBIAL POLYNUCLEOTIDE-TEMPLATED METAL NANOCLUSTER” (priority 2013, published 2015).
Converted amounts (≈) assume the structure as drawn.

Experiments:
[1] = tested on: multidrug-resistant bacteria P. aeruginosa; assay: Inhibition of P. aeruginosa growth in solution culture; type: cell-based, Pseudomonas aeruginosa; conditions: overnight at 37° C., shaking 250 rpm; AgNO3 180 μM
Protocol: Other than DNA-based surface chemistry, the size-dependent controlled-release of Ag^+ from the DNA-templated AgNCs (sub-2nm) were also compared with the citrate-capped silver nanoparticles (AgNPs, 15 nm) and AgNO3 (free flow of Ag^+) against bacterial growth under the same experimental conditions. AgNPs were synthesized based on the Turkevich method whereby an aqueous solution of trisodium citrate was brought to boil, followed by addition of AgNO3 aq solution (310 μM). The reaction was then boiled till a yellow solution was obtained. For the AgNO3, 180 μM of AgNO3 was used for this example.

human A549 cells = assay: WST-1 cytotoxicity assay; type: cell-based; conditions: compared at 44 μM, 4 hours at 37° C.
Protocol: The cytotoxicity of the silver-containing species were tested against human A549 cells (from the lungs) using the WST-1 Assay (manufactured by Roche). The silver-bearing species were diluted to different extents and allowed to incubate with the human cells at 37° C. for 4 hours. In the presence of dead cells, the enzymatic assay gave a pink coloured solution (as shown by the box in FIG. 4A), while the living cells gave a brown solution (cells that are outside the box region in FIG. 4A).
The percentage of human dead cells can be quantified spectroscopically by measuring the optical density of the solution at a wavelength of 440 nm. To examine the antimicrobial potency and cytotoxicity of silver in different formulations (AgNPs, DNA-templated AgNCs and AgNO3), the percentage of bacteria cells inhibited (y-axis representing the antibacterial potency) was plotted against the percentage of human A549 cells killed (x-axis representing the eukaryotic cytotoxicity) in FIG. 4B. Here, the relative percentages of human A549 cells killed were compared at a concentration of 44 μM for all silver-containing species.

B. cenocepacia = conditions: J. Antimicrob. Chemother., 2002, 50, 265-269; cited from earlier work
P. aeruginosa = conditions: J. Antimicrob. Chemother., 1999, 43, 345-349; cited from earlier work

Which “P. aeruginosa growth inhibited” value [1] does the source give for O=[N+]([O-])[O-].[Ag+] [AgNO3] here?
The value was “up to 97%”.

And the “cytotoxicity to human A549 cells” value (human A549 cells)?
The value was “high toxicity”.

With O=C(O)c1cn(C2CC2)c2cc(N3CCNCC3)c(F)cc2c1=O [ciprofloxacin] as the compound, how does the MIC50 (B. cenocepacia) read?
Its MIC50 is 0.36 µM (≈ 0.119 µg/mL).

And the MIC50 (P. aeruginosa)?
Its MIC50 is 0.27 µM (≈ 0.0895 µg/mL).
